Source: US12522584B2, “3,4-dihydroisoquinoline compound and use thereof” (CSPC Zhongqi Pharmaceutical Technology (Shijiazhuang) Co., …, priority 2020, dated 2026)
Marks after values point to notes of the source that are not given here.

Tests used:
[1] = system: human acute monocytic leukemia cell line MV4-11; assay: MV4-11 MTT cell growth inhibition; assay type: cell-based; details: 144 h, MV4-11 cells, MTT on Day 6
Description: The complete medium required for the culture of human acute monocytic leukemia cell line MV4-11 (Shanghai Cell Bank) for experiment was IMDM (Cat NO. 12440-053, gibco) supplemented with 10% FBS (Cat NO. SA311.02, cellmax). The cells were cultured in an incubator at 37° C. with 5% CO2. The experiment reagents included dimethyl sulfoxide (Tianjin Kemiou Chemical Reagent Co., Ltd.) and MTT (THIAZOLYL BLUE TETRAZOLIUM BROMIDE, CAS. NO. 298-93-1, VWR). The control compound GSK3326595 for experiment was homemade or commercially available. The test compound was encapsulated and stored at 4° C.
Dimethyl sulfoxide was used as a vehicle to fully dissolve the test compound, thereby formulating a stock solution at a concentration of 5×10^−2 mol/L. The stock solution was stored at −20° C. With the complete medium as diluent, the test compound was subjected to gradient dilution to afford dilutions at different concentrations for standby application. In a 96-well culture plate, the suspension of the human acute monocytic leukemia cell line MV4-11 in the complete medium, at a volume of 100 μL/well (2×10^3 cells/well), was added. Afterwards, the dilutions at different concentrations of the corresponding test compounds (100 μL/well) were added, respectively. Each of the test compounds was provided with 8 concentration gradients and three replicates were used for each concentration. The plates were incubated in an incubator at 37° C. with 5% CO2. On Day 6, the plate was treated with MTT (20 μL/well) and incubated for 4 h in an incubator at 37° C. with 5% CO2. The supernatant was discarded. Dimethyl sulfoxide (150 μL/well) was added and mixed well by shaking. The OD value at 550 nm was measured with a microplate reader. Wells containing only cell suspensions without the test compounds were control wells, and wells containing only complete media were blank wells. The cell growth inhibition rate was calculated according to the following equation: Inhibition rate=(OD valuecontrol well−OD valuesample well)/(OD valuecontrol well−OD valueblank well)×100%. According to the inhibition rate at each concentration, the half maximal inhibitory concentration IC50 value was calculated using the SPSS software. 2. Enzymatic Experiment

MV4-11 xenografts = assay: In vivo efficacy in MV4-11 subcutaneous xenograft model
Description: Experimental female NOD-SCID mice, SPF grade, 4 to 5 weeks, were purchased from Beijing Vital River Laboratory Animal Technology Co., Ltd. The mice were intraperitoneally injected with cyclophosphamide at a dose of 100 mg/kg one day before cell inoculation. The human acute monocytic leukemia cell line MV4-11 (1×10^7/0.1 ml/mouse) was subcutaneously inoculated into forelimb axilla of mice to establish a subcutaneous xenograft model. When the tumor volumes reached about 110 mm^3 (10 days after inoculation), the mice were equally grouped according to the tumor volume, with 5 mice in each group, i.e., vehicle group (2% DMSO+98% (0.2 g/mL) hydroxypropyl-β-cyclodextrin) and test drug groups. For the test drug groups, the dose of administration was 100 mg/kg, the dosing volume was 10 mL/kg, the dosing frequency was BID, the tumor diameters were measured twice per week, and the data was recorded. The mice were administered for 11 consecutive days. When the experiment ended, the tumors were dissected and weighed.

PRMT5 = PRMT5 (Homo sapiens (Human), UniProt O14744); assay: radiometric assay for PRMT5 based on FlashPlate technology; assay type: biochemical; details: PRMT5 5 nM, [3H]-SAM, 60 min at 25° C.; read-out: Enzymology (IC50)
Description: The radiometric assay for PRMT5 based on FlashPlate technology was adopted to determine IC50 of the test compound.
After dissolved in dimethyl sulfoxide respectively, the test compounds were added into an Echo Qualified 384-well plate and diluted to the desired concentrations. The diluted test compounds were transferred from the Echo Qualified 384-well plate to a 384-well reaction plate using an Echo 550 instrument, and dimethyl sulfoxide was transferred into both the control and blank wells. PRMT5 was added to 1×reaction buffer (including 10 mM Tris-HCl; pH 8.0; 0.01% Tween-20; 1 mM DTT) to form a 1.67×enzyme solution (at an enzyme concentration of 5 nM). A polypeptide substrate and [3H]-SAM were added to 1× reaction buffer to form a 2.5× substrate solution (the terminal concentrations of the substrates were 100 nM and 250 nM, respectively). At a volume of 15 μL/well, the 1.67× enzyme solution was added into wells of the 384-well reaction plate. In case of the blank wells, the enzyme solution was replaced with 15 μL of the 1× reaction buffer. The reaction plate was centrifuged at 1000 rpm for 1 min, and incubated at room temperature for 15 min. To each well of the 384-well reaction plate, 10 μL of the 2.5× substrate solution was added, centrifuged at 1000 rpm for 1 min, and reacted at 25° C. for 60 min. To each well of the 384-well reaction plate, 5 μL of reaction stop solution (which was […] cold SAM solution) was added to terminate the reaction. From each well of the test plate, 25 μL was measured and transferred to Flashplate and left at room temperature for 1 h. Thereafter, the Flashplate was washed with 0.1% Tween-20 solution three times. Readings were taken with MicroBeta 2. The data was converted into the inhibition rate data. Inhibition rate=(conversion ratecontrol well−conversion ratecompound well)/(conversion ratecontrol well−conversion rateblank well)×100%. The IC50curves were fitted using XLFit5.4.0.8. The fitting equation was as follows:Y=Bottom+(Top-Bottom)/(1+(IC50/X)^HillSlope).

in vivo = details: male, SD, rat, po, 25 mg/kg
Description: SD rats (male, 180 g to 200 g, Beijing Vital River Laboratory Animal Technology Co., Ltd.) were administered with the test compounds (solvent: 2% DMSO+98% (0.2 g/mL) hydroxypropyl-β-cyclodextrin, dosing volume: 5 mL/kg) by gavage. Blood was collected from the orbits of the rats at different points in time (0.25, 0.5, 1, 2, 4, 8, 24 h) after administration. The collected whole blood was anticoagulated with heparin sodium and centrifuged at 3000 g to obtain rat plasma samples, and methanol was added thereto to precipitate proteins. The drug concentration in rat plasma after administration was determined by HIPLC-MS/MS method. A drug concentration-time curve was plotted and the pharmacokinetic parameters were calculated. Pharmacokinetic behaviors of the compounds after administration in rats were described by means of the parameter estimation of non-compartmental model based on statistical moment theory.

Chain of PRMT5 (O14744 whole entry): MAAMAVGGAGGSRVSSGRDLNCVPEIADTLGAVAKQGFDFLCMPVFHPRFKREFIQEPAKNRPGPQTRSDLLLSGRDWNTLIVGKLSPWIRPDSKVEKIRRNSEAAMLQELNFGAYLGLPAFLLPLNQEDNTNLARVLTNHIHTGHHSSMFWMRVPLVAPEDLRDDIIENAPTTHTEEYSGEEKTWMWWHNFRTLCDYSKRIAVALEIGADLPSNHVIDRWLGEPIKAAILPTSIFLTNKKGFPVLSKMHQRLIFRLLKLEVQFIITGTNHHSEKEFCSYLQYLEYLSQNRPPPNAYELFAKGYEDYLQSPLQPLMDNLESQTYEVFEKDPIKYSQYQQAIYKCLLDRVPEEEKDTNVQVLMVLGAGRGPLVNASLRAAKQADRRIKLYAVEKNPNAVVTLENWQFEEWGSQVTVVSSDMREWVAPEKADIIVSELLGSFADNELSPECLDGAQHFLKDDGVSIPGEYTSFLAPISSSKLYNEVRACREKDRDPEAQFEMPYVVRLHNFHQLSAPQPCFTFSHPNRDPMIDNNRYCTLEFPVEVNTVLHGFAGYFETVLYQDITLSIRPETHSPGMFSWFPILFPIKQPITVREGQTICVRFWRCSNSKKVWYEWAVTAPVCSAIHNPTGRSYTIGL
Chain of PRMT5 (Q9BQA1 whole entry partner): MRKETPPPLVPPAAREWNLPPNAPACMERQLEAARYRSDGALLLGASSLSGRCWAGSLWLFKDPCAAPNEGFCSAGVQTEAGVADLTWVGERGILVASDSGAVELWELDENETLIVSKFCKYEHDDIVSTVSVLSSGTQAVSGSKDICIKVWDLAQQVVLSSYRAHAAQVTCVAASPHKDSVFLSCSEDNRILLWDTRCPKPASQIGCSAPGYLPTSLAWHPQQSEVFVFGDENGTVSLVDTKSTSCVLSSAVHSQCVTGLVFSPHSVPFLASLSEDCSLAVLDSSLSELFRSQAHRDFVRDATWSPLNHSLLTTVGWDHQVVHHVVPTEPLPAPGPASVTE

## CON=C(C)C(=O)N1CCC2(CC1)CC(Nc1cc(C(=O)NC[C@H](O)CN3CCc4ccccc4C3)ncn1)C2 [PR-13, (S)-N-(3-(3,4-dihydroisoquinolin-2(1H)-yl)-2-hydroxypropyl)-6-((7-(2-(methoxyimino)propanoyl)-7-azaspiro[3.5]nonan-2-yl)amino)pyrimidine-4-carboxamide]
[1]
  IC50: 1.53 nM
MV4-11 xenografts; 100 mg/kg BID, 9th day after administration
  d9 Tumor Volume (mm^3): 69.7 ± 22.9***# mm^3
MV4-11 xenografts; 100 mg/kg BID, 11 days, tumors dissected at end
  Tumor Weight: 0.0679 ± 0.0225 g
MV4-11 xenografts; 100 mg/kg BID, 11 days, versus vehicle group
  Tumor weight inhibition rate (%): 90.6%
MV4-11 xenografts; d0, before grouping for administration (baseline)
  d0 Tumor Volume (mm^3): 165.4 ± 30.2 mm^3
MV4-11 xenografts; relative tumor volume = d9/d0 tumor volume, 100 mg/kg BID
  RTV (d9): 0.4 ± 0.1
PRMT5
  IC50: 16 nM
In vivo
  AUC(0-t): 840 ng·h/mL
  Cmax: 516 ng/mL
  Tmax: 50 min
